Source: patent publication US20230339981A1, “KRAS G12D MODULATING COMPOUNDS” (priority 2022, published 2023)
pEC50, pIC50: −log10 of the molar value.

Experiments:
GDP-loaded KRAS G12D = GDP-loaded KRAS G12D (Homo sapiens (Human), UniProt P01116, G12D); assay: KRAS G12D (GDP) biochemical assay (TR-FRET probe displacement); assay type: binding; conditions: 2 hours
How it was run: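 Compound pre-incubated 30 min with GDP-loaded KRAS G12D in 50 mM Hepes pH 7.4, 150 mM NaCl, 5 mM MgCl2, 0.005% Tween-20, then Eu-streptavidin and TR-FRET probe added. After 2 h at room temperature, TR-FRET ratio read; IC50 is 50% ratio decrease, sigmoidal fit.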

GP2D (KRAS G12D) cells = assay: 2D cell viability assay (CellTiter-Glo); assay type: cell-based; conditions: GP2d, 96 h, 4 days
How it was run: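 GP2D (KRAS G12D) cells, 1000/well in RPMI + 10% FBS, were plated onto compound (1:3 DMSO series) and grown 4 days at 37 °C, 5% CO2 in 2D. CellTiter-Glo luminescence was read; EC50 is the concentration giving 50% signal decrease, from sigmoidal fit.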

GDP-loaded KRAS G12D, sequence (P01116-2 other isoform, or with tags, fused parts or gaps G12D): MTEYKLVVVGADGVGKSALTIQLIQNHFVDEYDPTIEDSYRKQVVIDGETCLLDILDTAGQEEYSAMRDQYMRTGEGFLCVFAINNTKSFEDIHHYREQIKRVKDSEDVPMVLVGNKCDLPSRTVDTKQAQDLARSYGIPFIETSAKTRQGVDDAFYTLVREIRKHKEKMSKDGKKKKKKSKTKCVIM

| Compound | pIC50 (GDP-loaded KRAS G12D) | pEC50 (GP2D (KRAS G12D) cells) |
| --- | --- | --- |
| Oc1cc(-c2nc3c4c(nc(OC[C@@]56CCCN5C[C@H](F)C6)nc4c2F)N2C[C@H]4CC[C@H](N4)[C@@H]2CO3)c2ccccc2c1 [Example 19, 4-((5aR,6S,9R)-1-fluoro-12-(((2R,7aS)-2-fluorotetrahydro-1H-pyrrolizin-7a(5H)-yl)methoxy)-5a,6,7,8,9,10-hexahydro-5H-4-oxa-3,10a,11,13,14-pentaaza-6,9-methanonaphtho[1,8-ab]heptalen-2-yl)naphthalen-2-ol] | 6.23 | 5.48 |
| C#Cc1c(F)ccc2cccc(-c3cc4c5c(nc(OC[C@@]67CCCN6C[C@H](F)C7)nc5c3F)N3C[C@H]5CC[C@H](N5)[C@H]3CCC4)c12 [Example 192, (1S,4R,15aR)-11-(8-ethynyl-7-fluoronaphthalen-1-yl)-10-fluoro-8-(((2R,7aS)-2-fluorotetrahydro-1H-pyrrolizin-7a(5H)-yl)methoxy)-2,3,4,5,13,14,15,15a-octahydro-1H-1,4-epiminoazepino[1′,2′:1,8]azocino[2,3,4-de]quinazoline] | 10.00 | 8.35 |
| C#Cc1c(F)ccc2cccc(-c3c(Cl)c4c5c(nc(OC[C@@]67CCCN6C[C@H](F)C7)nc5c3F)N3C[C@H]5CC[C@H](N5)[C@H]3CC4)c12 [Example 202, (1S,4R,14aR)-12-chloro-11-(8-ethynyl-7-fluoronaphthalen-1-yl)-10-fluoro-8-(((2R,7aS)-2-fluorotetrahydro-1H-pyrrolizin-7a(5H)-yl)methoxy)-1,2,3,4,5,13,14,14a-octahydro-1,4-epiminoazepino[1′,2′:1,7]azepino[2,3,4-de]quinazoline] | 9.43 | 7.19 |
| C#Cc1c(F)ccc2cc(O)cc(-c3nc4c5c(nc(OC[C@@]67CCCN6[C@H](COCC(F)(F)F)CC7)nc5c3F)N3C[C@H]5CC[C@H](N5)[C@H]3CC4)c12 [Example 163, 5-ethynyl-6-fluoro-4-((5aR,6S,9R)-1-fluoro-12-(((3S,7aS)-3-((2,2,2-trifluoroethoxy)methyl)tetrahydro-1H-pyrrolizin-7a(5H)-yl)methoxy)-4,5,5a,6,7,8,9,10-octahydro-3,10a,11,13,14-pentaaza-6,9-methanonaphtho[1,8-ab]heptalen-2-yl)naphthalen-2-ol] | 10.00 | 8.29 |
| C#Cc1c(F)ccc2cccc(-c3nc4c5c(nc(OC[C@@]67CCCN6C[C@H](OC(C(F)(F)F)(C(F)(F)F)C(F)(F)F)C7)nc5c3F)N3C[C@H]5CC[C@H](N5)[C@H]3CC4)c12 [Example 130, (5aR,6S,9R)-2-(8-ethynyl-7-fluoronaphthalen-1-yl)-1-fluoro-12-((trans-2-((1,1,1,3,3,3-hexafluoro-2-(trifluoromethyl)propan-2-yl)oxy)tetrahydro-1H-pyrrolizin-7a(5H)-yl)methoxy)-4,5,5a,6,7,8,9,10-octahydro-3,10a,11,13,14-pentaaza-6,9-methanonaphtho[1,8-ab]heptalene] | 7.00 | 7.00 |
| Oc1cc(-c2nc3c4c(nc(OC[C@@]56CCCN5C[C@H](F)C6)nc4c2F)N2C[C@H]4CC[C@H](N4)[C@H]2CO3)c2c(F)c(Cl)ccc2c1 [Example 6, 6-chloro-5-fluoro-4-((5aS,6S,9R)-1-fluoro-12-(((2R,7aS)-2-fluorotetrahydro-1H-pyrrolizin-7a(5H)-yl)methoxy)-5a,6,7,8,9,10-hexahydro-5H-4-oxa-3,10a,11,13,14-pentaaza-6,9-methanonaphtho[1,8-ab]heptalen-2-yl)naphthalen-2-ol] | 8.70 | 7.15 |
| C#Cc1c(F)ccc2cc(O)cc(-c3nc4c5c(nc(OC[C@@]67CCCN6[C@H](COc6cc(C(F)(F)F)ncn6)CC7)nc5c3F)N3C[C@H]5CC[C@H](N5)[C@H]3CC4)c12 [Example 149, 5-ethynyl-6-fluoro-4-((5aR,6S,9R)-1-fluoro-12-(((3S,7aS)-3-(((6-(trifluoromethyl)pyrimidin-4-yl)oxy)methyl)tetrahydro-1H-pyrrolizin-7a(5H)-yl)methoxy)-4,5,5a,6,7,8,9,10-octahydro-3,10a,11,13,14-pentaaza-6,9-methanonaphtho[1,8-ab]heptalen-2-yl)naphthalen-2-ol] | > 10.00 | 9.52 |
| C#Cc1c(F)ccc2cc(O)cc(-c3nc4c5c(nc(OCC67CCCN6C[C@H](OC(F)(F)F)C7)nc5c3F)N3C[C@H]5CC[C@H](N5)[C@H]3CC4)c12 (stereo partly drawn) [Example 138, 5-ethynyl-6-fluoro-4-((5aR,6S,9R)-1-fluoro-12-((cis-2-(trifluoromethoxy)tetrahydro-1H-pyrrolizin-7a(5H)-yl)methoxy)-4,5,5a,6,7,8,9,10-octahydro-3,10a,11,13,14-pentaaza-6,9-methanonaphtho[1,8-ab]heptalen-2-yl)naphthalen-2-ol] | 9.52 | 7.76 |
| Fc1c(-c2cccc3ccccc23)nc2c3c(nc(OC[C@@]45CCCN4C[C@H](F)C5)nc13)N1C[C@H]3CC[C@H](N3)[C@H]1CO2 [Example 46, (5aS,6S,9R)-1-fluoro-12-(((2R,7aS)-2-fluorotetrahydro-1H-pyrrolizin-7a(5H)-yl)methoxy)-2-(naphthalen-1-yl)-5a,6,7,8,9,10-hexahydro-5H-4-oxa-3,10a,11,13,14-pentaaza-6,9-methanonaphtho[1,8-ab]heptalene] | 6.04 | < 6.00 |
| Oc1cc(-c2nc3c4c(nc(OC[C@@]56CCCN5C[C@H](F)C6)nc4c2F)N2C[C@H]4CC[C@H](N4)[C@H]2CO3)c2c(F)cccc2c1 [Example 5, 5-fluoro-4-((5aS,6S,9R)-1-fluoro-12-(((2R,7aS)-2-fluorotetrahydro-1H-pyrrolizin-7a(5H)-yl)methoxy)-5a,6,7,8,9,10-hexahydro-5H-4-oxa-3,10a,11,13,14-pentaaza-6,9-methanonaphtho[1,8-ab]heptalen-2-yl)naphthalen-2-ol] | 8.52 | 6.60 |
| C#Cc1c(F)ccc2cccc(-c3nc4c5c(nc(OCC67CCCN6C[C@H](OC(F)(F)F)C7)nc5c3F)N3C[C@H]5CC[C@H](N5)[C@H]3CC4)c12 (stereo partly drawn) [Example 137, (5aR,6S,9R)-2-(8-ethynyl-7-fluoronaphthalen-1-yl)-1-fluoro-12-((cis-2-(trifluoromethoxy)tetrahydro-1H-pyrrolizin-7a(5H)-yl)methoxy)-4,5,5a,6,7,8,9,1O-octahydro-3,10a,11,13,14-pentaaza-6,9-methanonaphtho[1,8-ab]heptalene] | 7.61 | 7.00 |
| C#Cc1c(F)ccc2cccc(-c3nc4c5c(nc(OC[C@@]67CCCN6[C@H](COc6ncncc6C(F)F)CC7)nc5c3F)N3C[C@H]5CC[C@H](N5)[C@H]3CCC4)c12 [Example 206, (6aR,7S,10R)-13-(((3S,7aS)-3-(((5-(difluoromethyl)pyrimidin-4-yl)oxy)methyl)tetrahydro-1H-pyrrolizin-7a(5H)-yl)methoxy)-2-(8-ethynyl-7-fluoronaphthalen-1-yl)-1-fluoro-5,6,6a,7,8,9,10,11-octahydro-4H-3,11a,12,14,15-pentaaza-7,10-methanocyclohepta[4,5]cycloocta[1,2,3-de]naphthalene] | 10.40 | 8.80 |
| C#Cc1c(F)ccc2cccc(-c3nc4c5c(nc(OC[C@@]67CCCN6C[C@H](F)C7)nc5c3F)N3C[C@H]5CC[C@H](N5)[C@H]3CC[C@@H]4C)c12 [Example 174, (4S,6aR,7S,10R)-2-(8-ethynyl-7-fluoronaphthalen-1-yl)-1-fluoro-13-(((2R,7aS)-2-fluorotetrahydro-1H-pyrrolizin-7a(5H)-yl)methoxy)-4-methyl-5,6,6a,7,8,9,10,11-octahydro-4H-3,11a,12,14,15-pentaaza-7,10-methanocyclohepta[4,5]cycloocta[1,2,3-de]naphthalene] | 8.24 | 7.00 |
| Oc1cc(-c2nc3c4c(nc(OC[C@@]56CCCN5C[C@H](F)C6)nc4c2F)N2C[C@H]4CC[C@H](N4)[C@H]2CO3)c2c(SC(F)(F)F)c(F)ccc2c1 [Example 54, 6-fluoro-4-((5aS,6S,9R)-1-fluoro-12-(((2R,7aS)-2-fluorotetrahydro-1H-pyrrolizin-7a(5H)-yl)methoxy)-5a,6,7,8,9,10-hexahydro-5H-4-oxa-3,10a,11,13,14-pentaaza-6,9-methanonaphtho[1,8-ab]heptalen-2-yl)-5-((trifluoromethyl)thio)naphthalen-2-ol] | 8.52 | 7.38 |
| C#Cc1c(F)ccc2cc(O)cc(-c3nc4c5c(nc(OC[C@@]67CCCN6C[C@H](F)C7)nc5c3F)N3C[C@H]5CC[C@H](N5)[C@@H]3[C@H](C)C4)c12 [Example 79, 5-ethynyl-6-fluoro-4-((5R,5aS,6S,9R)-1-fluoro-12-(((2R,7aS)-2-fluorotetrahydro-1H-pyrrolizin-7a(5H)-yl)methoxy)-5-methyl-4,5,5a,6,7,8,9,10-octahydro-3,10a,11,13,14-pentaaza-6,9-methanonaphtho[1,8-ab]heptalen-2-yl)naphthalen-2-ol] | 8.15 | 7.82 |
| Fc1ccc(-c2nc3c4c(nc(OC[C@@]56CCCN5C[C@H](F)C6)nc4c2F)N2C[C@H]4CC[C@H](N4)[C@H]2CO3)c2ccccc12 [Example 72, (5aS,6S,9R)-1-fluoro-2-(4-fluoronaphthalen-1-yl)-12-(((2R,7aS)-2-fluorotetrahydro-1H-pyrrolizin-7a(5H)-yl)methoxy)-5a,6,7,8,9,10-hexahydro-5H-4-oxa-3,10a,11,13,14-pentaaza-6,9-methanonaphtho[1,8-ab]heptalene] | 6.29 | < 6.00 |
